{"source": "patent US10100058B2", "about": "“Fused heterocyclic compounds as CaM kinase inhibitors” (Gilead Sciences, Inc., priority 2016, dated 2018)", "data": [{"molecular_target": "recombinant CaMKIIδ (Homo sapiens (Human), UniProt Q13557)", "assay": "CaMKIIδ biochemical assay (HTRF)", "settings": "10 pM CaMKIIδ, 110 nM calmodulin, 12 μM ATP, 1 hour; read-out: CAMKIID-HTRF-384V2 (IC50 - nM)", "method": "CaMKIIδ Biochemical Assay\nThe biochemical activity of recombinant CaMKIIδ was measured by monitoring the phosphorylation of a target peptide using Homogenous Time Resolved Fluorescence (HTRF) technology from CisBio Bioassays.", "units": {"IC50": "nM"}, "values": [{"smiles": "CCN(CC)[C@@H](C)CNC(=O)c1cc(-c2cnn3ccc(-c4cccs4)nc23)nc(N2CC(O)(C(F)(F)F)C2)c1", "note": "[Example 219, (S)—N-(2-(diethylamino)propyl)-2-(3-hydroxy-3-(trifluoromethyl)azetidin-1-yl)-6-(5-(thiophen-2 yl)pyrazolo[1,5-a]pyrimidin-3-yl)isonicotinamide]", "IC50": 0.21}, {"smiles": "CCN(CC)[C@@H](C)CNC(=O)c1cc(O[C@H]2CCOC2)nc(-c2cnn3ccc(-c4cccs4)nc23)c1", "note": "[Example 345, N—((S)-2-(diethylamino)propyl)-2-(((S)-tetrahydrofuran-3-yl)oxy)-6-(5-(thiophen-2-yl)pyrazolo[1,5-a]pyrimidin-3-yl)isonicotinamide]", "IC50": 1.22}, {"smiles": "CCN(CC)[C@@H](C)CNC(=O)c1cc(-c2ncco2)nc(-c2cnn3ccc(-c4cccs4)nc23)c1", "note": "[Example 339, (S)—N-(2-(diethylamino)propyl)-2-(oxazol-2-yl)-6-(5-(thiophen-2-yl)pyrazolo[1,5-a]pyrimidin-3-yl)isonicotinamide]", "IC50": 0.35}, {"smiles": "CCN(CC)[C@@H](C)CNC(=O)c1cc(NCC2(N3CCCC3)COC2)nc(-c2cnn3ccc(-c4cccs4)nc23)c1", "note": "[Example 164, (S)—N-(2-(diethylamino)propyl)-2-(((3-(pyrrolidin-1-yl)oxetan-3-yl)methyl)amino)-6-(5-(thiophen-2-yl)pyrazolo[1,5-a]pyrimidin-3-yl)isonicotinamide]", "IC50": 0.38}, {"smiles": "CCN(CC)[C@@H](C)CNC(=O)c1cc(-c2cnn3ccc(-c4cccs4)nc23)nc(N2CCNC(=O)C2)c1", "note": "[Example 314, (S)—N-(2-(diethylamino)propyl)-2-(3-oxopiperazin-1-yl)-6-(5-(thiophen-2-yl)pyrazolo[1,5-a]pyrimidin-3-yl)isonicotinamide]", "IC50": 0.14}, {"smiles": "CCN(CC)[C@@H](C)CNC(=O)c1cc(NCCN(C)C)nc(-c2cnn3ccc(-c4ccccc4)nc23)c1", "note": "[Example 158, (S)—N-(2-(diethylamino)propyl)-2-((2-(dimethylamino)ethyl)amino)-6-(5-phenylpyrazolo[1,5-a]pyrimidin-3-yl)isonicotinamide]", "IC50": 0.56}, {"smiles": "CCN(CC)[C@@H](C)CNC(=O)c1cc(OCC2(C)COC2)nc(-c2cnn3ccc(-c4cccs4)nc23)c1", "note": "[Example 349, (S)—N-(2-(diethylamino)propyl)-2-((3-methyloxetan-3-yl)methoxy)-6-(5-(thiophen-2-yl)pyrazolo[1,5-a]pyrimidin-3-yl)isonicotinamide]", "IC50": 0.56}, {"smiles": "CCN(CC)[C@@H](C)CNC(=O)c1cc(NCC2(C)COC2)nc(-c2cnn3ccc(-c4cccs4)nc23)c1", "note": "[Example 191, (S)—N-(2-(diethylamino)propyl)-2-(((3-methyloxetan-3-yl)methyl)amino)-6-(5-(thiophen-2-yl)pyrazolo[1,5-a]pyrimidin-3-yl)isonicotinamide]", "IC50": 0.2}, {"smiles": "CCN(CC)[C@@H](C)CNC(=O)c1cc(NCCN(C)C)nc(-c2cnn3ccc(-c4cccs4)nc23)c1", "note": "[Example 157, (S)—N-(2-(diethylamino)propyl)-2-((2-(dimethylamino)ethyl)amino)-6-(5-(thiophen-2-yl)pyrazolo[1,5-a]pyrimidin-3-yl)isonicotinamide]", "IC50": 0.07}, {"smiles": "CCN(CC)[C@@H](C)CNC(=O)c1cc(-c2cnn3ccc(-c4cccs4)nc23)ccn1", "note": "[Example 363, (S)—N-(2-(diethylamino)propyl)-4-(5-(thiophen-2-yl)pyrazolo[1,5-a]pyrimidin-3-yl)picolinamide]", "IC50": 1.3}, {"smiles": "CCN(CC)[C@@H](C)CNC(=O)c1cc(-c2cnn3ccc(-c4cccs4)nc23)nc(N2CC(C(F)(F)F)C2)c1", "note": "[Example 147, (S)—N-(2-(diethylamino)propyl)-2-(5-(thiophen-2-yl)pyrazolo[1,5-a]pyrimidin-3-yl)-6-(3-(trifluoromethyl)azetidin-1-yl)isonicotinamide]", "IC50": 0.34}, {"smiles": "CCC[C@@]1(CNC(=O)c2ccnc(-c3cnn4ccc(-c5cccs5)nc34)c2)CCCN1", "note": "[Example 10, (S)—N-((2-propylpyrrolidin-2-yl)methyl)-2-(5-(thiophen-2-yl)pyrazolo[1,5-a]pyrimidin-3-yl)isonicotinamide]", "IC50": 9.8}, {"smiles": "CCCNC(CC)CNC(=O)c1ccnc(-c2cnn3ccc(-c4ccccc4)nc23)c1", "note": "(stereo not drawn) [Example 51, 2-(5-phenylpyrazolo[1,5-a]pyrimidin-3-yl)-N-(2-(propylamino)butyl)isonicotinamide]", "IC50": 9.61}, {"smiles": "CCN(CC)[C@@H](C)CNC(=O)c1cc(-c2cnn3ccc(-c4cccs4)nc23)nc(N2CCC[C@H]2COC)c1", "note": "[Example 274, N—((S)-2-(diethylamino)propyl)-2-((S)-2-(methoxymethyl)pyrrolidin-1-yl)-6-(5-(thiophen-2-yl)pyrazolo[1,5-a]pyrimidin-3-yl)isonicotinamide]", "IC50": 0.63}, {"smiles": "CCN(CC)[C@@H](C)CNC(=O)c1cc(-c2cnn3ccc(-c4cccs4)nc23)nc(N2CC(CO)(CO)C2)c1", "note": "[Example 244, (S)-2-(3,3-bis(hydroxymethyl)azetidin-1-yl)-N-(2-(diethylamino)propyl)-6-(5-(thiophen-2-yl)pyrazolo[1,5-a]pyrimidin-3-yl)isonicotinamide]", "IC50": 0.16}, {"smiles": "CCN(CC)[C@@H](C)CNC(=O)c1cc(-c2cc[nH]n2)nc(-c2cnn3ccc(-c4cccs4)nc23)c1", "note": "[Example 336, (S)—N-(2-(diethylamino)propyl)-2-(1H-pyrazol-3-yl)-6-(5-(thiophen-2-yl)pyrazolo[1,5-a]pyrimidin-3-yl)isonicotinamide]", "IC50": 0.1}, {"smiles": "CN(C)c1cc(C(=O)N2CCCC[C@H]2CN)cc(-c2cnn3ccc(-c4ccccc4)nc23)n1", "note": "[Example 135, (S)-(2-(aminomethyl)piperidin-1-yl)(2-(dimethylamino)-6-(5-phenylpyrazolo[1,5-a]pyrimidin-3-yl)pyridin-4-yl)methanone]", "IC50": 761}, {"smiles": "CCN(CC)[C@@H](C)CNC(=O)c1cc(-c2nccs2)nc(-c2cnn3ccc(-c4cccs4)nc23)c1", "note": "[Example 338, (S)—N-(2-(diethylamino)propyl)-2-(thiazol-2-yl)-6-(5-(thiophen-2-yl)pyrazolo[1,5-a]pyrimidin-3-yl)isonicotinamide]", "IC50": 0.86}, {"smiles": "CCN(CC)[C@@H](C)CNC(=O)c1cc(NS(=O)(=O)CC)nc(-c2cnn3ccc(-c4cccs4)nc23)c1", "note": "[Example 179, (S)—N-(2-(diethylamino)propyl)-2-(ethylsulfonamido)-6-(5-(thiophen-2-yl)pyrazolo[1,5-a]pyrimidin-3-yl)isonicotinamide]", "IC50": 0.72}, {"smiles": "CCN(CC)[C@@H](C)CNC(=O)c1cc(-c2cnn3ccc(-c4cccs4)nc23)nc(N2CC[C@H]2C(=O)N(C)O)c1", "note": "[Example 298, N—((S)-2-(diethylamino)propyl)-2-((S)-2-(hydroxy(methyl)carbamoyl)azetidin-1-yl)-6-(5-(thiophen-2-yl)pyrazolo[1,5-a]pyrimidin-3-yl)isonicotinamide]", "IC50": 0.23}, {"smiles": "COC1CN(c2cc(C(=O)N3CC4CCC(C3)NC4)cc(-c3cnn4ccc(-c5ccccc5)nc34)n2)C1", "note": "(stereo not drawn) [Example 329, (-3,6-diazabicyclo[3.2.2]nonan-3-yl)(2-(3-methoxyazetidin-1-yl)-6-(5-phenylpyrazolo[1,5-a]pyrimidin-3-yl)pyridin-4-yl)methanone]", "IC50": 14.1}, {"smiles": "CC[C@@H](CNC(=O)c1cc(-c2cnn3ccc(-c4cccs4)nc23)nc(N2CC[C@H]2C(=O)NC)c1)N(CC)CC", "note": "(single isomer, unassigned) [Example 356A]", "IC50": 0.31}, {"smiles": "CCNC(CC)CNC(=O)c1ccnc(-c2cnn3ccc(-c4ccccc4)nc23)c1", "note": "(stereo not drawn) [Example 54, N-(2-(ethylamino)butyl)-2-(5-phenylpyrazolo[1,5-a]pyrimidin-3-yl)isonicotinamide]", "IC50": 13.4}, {"smiles": "CCN(CC)[C@@H](C)CNC(=O)c1cc(-c2cnn3ccc(-c4cccs4)nc23)nc(N2CCC(C(N)=O)CC2)c1", "note": "[Example 263, (S)-2-(4-carbamoylpiperidin-1-yl)-N-(2-(diethylamino)propyl)-6-(5-(thiophen-2-yl)pyrazolo[1,5-a]pyrimidin-3-yl)isonicotinamide]", "IC50": 0.51}, {"smiles": "CCCN(CC)[C@@H](C)CNC(=O)c1cc(-c2cnn3ccc(-c4cccs4)nc23)nc(N2CC[C@H]2C(=O)NC)c1", "note": "[Example 357, N—((S)-2-(ethyl(propyl)amino)propyl)-2-((S)-2-(methylcarbamyl)azetidin-1-yl)-6-(5-(thiophen-2-yl)pyrazolo[1,5-a]pyrimidin-3-yl)isonicotinamide]", "IC50": 0.27}, {"smiles": "COc1cc(C(=O)N2CCCC[C@H]2CN)cc(-c2cnn3ccc(-c4ccccc4)nc23)n1", "note": "[Example 134, (S)-(2-(aminomethyl)piperidin-1-yl)(2-methoxy-6-(5-phenylpyrazolo[1,5-a]pyrimidin-3-yl)pyridin-4-yl)methanone]", "IC50": 303}, {"smiles": "CC[C@]1(CNC(=O)c2ccnc(-c3cnn4ccc(-c5ccccc5)nc34)c2)CCCN1", "note": "[Example 43, (R)—N-((2-ethylpyrrolidin-2-yl)methyl)-2-(5-phenylpyrazolo[1,5-a]pyrimidin-3-yl)isonicotinamide]", "IC50": 27.7}, {"smiles": "CCN(CC)[C@@H](C)CNC(=O)c1cc(-c2cnn3ccc(-c4cccs4)nc23)nc(N2CC[C@H]2C(=O)NCC2CC2)c1", "note": "[Example 278, 2-((S)-2-((cyclopropylmethyl)carbamoyl)azetidin-1-yl)-N—((S)-2-(diethylamino)propyl)-6-(5-(thiophen-2-yl)pyrazolo[1,5-a]pyrimidin-3-yl)isonicotinamide]", "IC50": 0.41}, {"smiles": "CCN(CC)[C@@H](C)CNC(=O)c1cc(-c2cnn3ccc(-c4cccs4)nc23)nc(N2CC[C@H]2C(=O)N2CCS(=O)(=O)CC2)c1", "note": "[Example 303, N—((S)-2-(diethylamino)propyl)-2-((S)-2-(1,1-dioxidothiomorpholine-4-carbonyl)azetidin-1-yl)-6-(5-(thiophen-2-yl)pyrazolo[1,5-a]pyrimidin-3-yl)isonicotinamide]", "IC50": 0.16}, {"smiles": "CN(C)CCNC(=O)c1ccnc(-c2cnn3ccc(-c4ccccc4)nc23)c1", "note": "[Example 39, N-(2-(dimethylamino)ethyl)-2-(5-phenylpyrazolo[1,5-a]pyrimidin-3-yl)isonicotinamide]", "IC50": 137}]}]}
